# Laboratory results taken from article PMC6601628 (Science (New York, N.Y.), 2019).
# Columns and labels:
# [1] = biological target: eIF2B(βγδε)2 octamer (Homo sapiens, UniProt P49770+Q9UI10); assay: GEF activity, loading of fluorescent GDP onto eIF2; format: biochemical; conditions: activator; stabilises assembly of two tetramers; substrate eIF2
# [2] = biological target: eIF2B(βγδε)2 octamer (Homo sapiens, UniProt P49770+Q9UI10, P49770:N132D); assay: GEF activity, loading of fluorescent GDP onto eIF2; format: biochemical; conditions: activator; stabilises assembly of two tetramers; substrate eIF2
# Chain of eIF2B(βγδε)2 octamer (Homo sapiens, UniProt P49770+Q9UI10, P49770:N132D) (P49770 whole entry N132D): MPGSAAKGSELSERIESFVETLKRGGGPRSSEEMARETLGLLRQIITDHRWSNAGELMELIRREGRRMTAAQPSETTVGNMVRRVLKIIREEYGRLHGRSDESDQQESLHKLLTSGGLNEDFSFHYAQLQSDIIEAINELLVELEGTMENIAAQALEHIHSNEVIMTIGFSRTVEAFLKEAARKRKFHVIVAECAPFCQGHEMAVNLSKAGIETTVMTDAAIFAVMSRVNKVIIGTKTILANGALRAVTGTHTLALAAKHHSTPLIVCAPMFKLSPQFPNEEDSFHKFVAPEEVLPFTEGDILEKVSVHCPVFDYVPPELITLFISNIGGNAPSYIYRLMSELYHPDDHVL
# Chain of eIF2B(βγδε)2 octamer (Homo sapiens, UniProt P49770+Q9UI10, P49770:N132D) (Q9UI10 whole entry): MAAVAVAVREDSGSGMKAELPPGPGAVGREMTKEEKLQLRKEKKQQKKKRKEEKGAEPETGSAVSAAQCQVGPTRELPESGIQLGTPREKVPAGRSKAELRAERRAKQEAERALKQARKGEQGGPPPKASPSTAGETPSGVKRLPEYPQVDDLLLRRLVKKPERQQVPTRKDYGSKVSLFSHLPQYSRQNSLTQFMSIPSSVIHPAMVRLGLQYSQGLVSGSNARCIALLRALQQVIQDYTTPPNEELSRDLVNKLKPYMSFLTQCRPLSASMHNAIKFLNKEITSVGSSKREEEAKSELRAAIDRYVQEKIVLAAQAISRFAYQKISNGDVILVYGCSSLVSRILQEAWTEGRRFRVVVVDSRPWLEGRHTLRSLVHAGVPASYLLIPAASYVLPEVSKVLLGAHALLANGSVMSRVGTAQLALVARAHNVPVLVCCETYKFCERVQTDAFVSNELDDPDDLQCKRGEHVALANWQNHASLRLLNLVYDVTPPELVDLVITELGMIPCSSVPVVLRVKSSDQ
# Chain of eIF2B(βγδε)2 octamer (Homo sapiens, UniProt P49770+Q9UI10, P49770:N132D) (Q9NR50 whole entry partner): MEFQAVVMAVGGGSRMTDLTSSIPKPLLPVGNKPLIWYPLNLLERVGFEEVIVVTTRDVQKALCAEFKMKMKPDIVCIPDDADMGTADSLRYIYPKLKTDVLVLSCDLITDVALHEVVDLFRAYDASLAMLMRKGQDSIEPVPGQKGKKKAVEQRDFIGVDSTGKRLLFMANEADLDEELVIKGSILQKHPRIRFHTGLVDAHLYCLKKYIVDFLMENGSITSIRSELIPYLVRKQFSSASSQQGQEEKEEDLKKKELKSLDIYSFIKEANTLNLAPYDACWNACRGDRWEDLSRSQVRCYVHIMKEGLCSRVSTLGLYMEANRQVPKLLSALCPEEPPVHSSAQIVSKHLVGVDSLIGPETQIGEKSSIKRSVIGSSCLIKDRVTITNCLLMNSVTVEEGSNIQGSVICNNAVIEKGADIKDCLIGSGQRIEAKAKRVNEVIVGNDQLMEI
# Chain of eIF2B(βγδε)2 octamer (Homo sapiens, UniProt P49770+Q9UI10, P49770:N132D) (Q13144 2-721 partner): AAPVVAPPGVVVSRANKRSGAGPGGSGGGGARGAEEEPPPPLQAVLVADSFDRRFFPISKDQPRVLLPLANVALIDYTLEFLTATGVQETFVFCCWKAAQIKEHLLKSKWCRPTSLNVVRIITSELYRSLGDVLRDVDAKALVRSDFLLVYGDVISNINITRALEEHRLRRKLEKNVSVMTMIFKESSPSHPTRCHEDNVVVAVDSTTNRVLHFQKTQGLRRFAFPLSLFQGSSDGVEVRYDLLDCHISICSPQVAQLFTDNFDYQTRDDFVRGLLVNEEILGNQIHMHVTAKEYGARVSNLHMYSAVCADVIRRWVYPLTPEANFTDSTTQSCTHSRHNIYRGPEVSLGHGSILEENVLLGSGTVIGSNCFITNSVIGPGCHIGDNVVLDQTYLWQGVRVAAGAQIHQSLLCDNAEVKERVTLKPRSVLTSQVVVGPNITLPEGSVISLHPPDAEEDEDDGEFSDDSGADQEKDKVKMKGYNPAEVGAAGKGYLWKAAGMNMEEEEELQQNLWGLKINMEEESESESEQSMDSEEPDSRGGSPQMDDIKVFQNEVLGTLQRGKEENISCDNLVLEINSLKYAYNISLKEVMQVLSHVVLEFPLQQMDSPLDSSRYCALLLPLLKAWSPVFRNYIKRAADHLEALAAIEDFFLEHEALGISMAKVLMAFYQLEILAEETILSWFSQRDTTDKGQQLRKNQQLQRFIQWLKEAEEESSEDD
# Chain of eIF2B(βγδε)2 octamer (Homo sapiens, UniProt P49770+Q9UI10) (P49770 whole entry): as the sequence (P49770 whole entry N132D) above, with D132N counted along it
# Chain of eIF2B(βγδε)2 octamer (Homo sapiens, UniProt P49770+Q9UI10) (Q9UI10 whole entry): as the sequence (Q9UI10 whole entry) above
# Chain of eIF2B(βγδε)2 octamer (Homo sapiens, UniProt P49770+Q9UI10) (Q9NR50 whole entry partner): as the sequence (Q9NR50 whole entry partner) above
# Chain of eIF2B(βγδε)2 octamer (Homo sapiens, UniProt P49770+Q9UI10) (Q13144 2-721 partner): as the sequence (Q13144 2-721 partner) above
structure (smiles),measurement,setting,value
O=C(COc1ccc(Cl)cc1)N[C@H]1CC[C@H](NC(=O)COc2ccc(Cl)cc2)CC1 [ISRIB],"GEF activity, loading of fluorescent GDP onto eIF2",[1],GEF activity of the ISRIB-stabilized eIF2B octamer
same,"GEF activity, loading of fluorescent GDP onto eIF2",[2],eIF2B-βN132D tetramers and ISRIB-stabilized octamers
